Tested on: 677734-321-R-J1-PDC complex spheroid viability
Assay: Anticancer human tumor 677734-321-R-J1-PDC patient-derived soft tissue sarcoma cell line growth inhibition [POLQ]
Details: for IC50: curve of first compound; for viability, T/C: stronger effect = lower value
Experimental: Multicellular complex tumor spheroid response to Polymerase (POL) inhibitors (novobiocin, ART-558, RP6685) in combination with a variety of drugs and investigational agents in selected tumor cell lines
The POL inhibitors (novobiocin, ART-558, and RP6685) were evaluated both individually and in combination with standard of care and investigational anticancer small molecules within a complex spheroid model of solid tumors. . Complex spheroids include a stromal component modeled by human endothelial cells (HUVEC) and fibroblasts modeled by human mesenchymal stem cells (MSCs). The concentration ranges selected for each drug and investigational agent were based upon clinically achievable concentrations if the clinical Cmax of the agent was known.
Compounds. The drugs and investigational agents: novobiocin (NSC847541), ART-558 (NSC835418), RP-6685 (NSC848927), peposertib (NSC802822), ceralasertib (NSC780249), elimusertib (NSC800525), camonsertib (NSC841442), AZD-1390 (NSC803789), olaparib (NSC753686), talazoparib (NSC767125), rucaparib (NSC756644), sotorasib (NSC818433), MRTX-1133 (NSC836407), SN-38 (NSC673596), topotecan (NSC609699), epotoside (NSC141540), doxorubicin (NSC123127), gemcitabine (NSC613327), 5-fluorouracil (NSC19893), paclitaxel (NSC125973), vemurafenib (NSC761431), MSA-2 (NSC828583), SN-011 (NSC837082), adavosertib (NSC754352), prexasertib (NSC758257), carboplatin (NSC241240) and oxaliplatin (NSC266046), were obtained from the National Cancer Institute (NCI) Developmental Therapeutics Program Chemical Repository (21). The FDA-approved anticancer drug set is available from the Developmental Therapeutics Program at https://dtp.cancer.gov/organization/dscb/obtaining/. […] The stock solutions were prepared in dimethyl sulfoxide (DMSO, Sigma-Aldrich, St. Louis, MO, cat. D2650), except for the platinum compounds which were prepared in saline (Quality Biological, Gaithersburg, MD, cat. 114-055-101), at 800-fold the tested concentration and stored at -70 degrees C prior to their use. All drugs and investigational agents were tested over a range starting from a high concentration at or near the clinical Cmax and decreasing in half-log increments. If the clinical Cmax for an agent had not been determined, the highest concentration tested was 10 microM, except for SN-38, which was tested at a high concentration of 1 microM.
Cell Culture. All cells were maintained in an incubator at 37 degrees C and 5% CO2 with 95% humidity. The PDC lines were cultured according to standard operating procedures established by the NCI PDMR (https://pdmr.cancer.gov). Table 3 of the manuscript, lists the cell lines along with the number of the three cell types plated to form the mct-spheroids and media for tumor cell growth. After thawing, all PDC lines, except 997537-175-T-J1-PDC and 415267-285-R-J2-PDC, were cultured in Matrigel-coated flasks prepared with a working solution of 1X Ham's F-12 nutrient mix, without supplementation (Thermo Fisher Scientific, cat. 11765054), 100 U/mL penicillin-streptomycin (Thermo Fisher Scientific, cat. 15140122), and 2.5% Matrigel (Corning Inc., Corning, NY, cat. 354248) for the first three passages. The two PDC lines 997537-175-T-J1-PDC and 415267-285-R-J2-PDC were cultured on uncoated flasks. The 857933-349-R-J2-PDC line was cultured in 6C/Colon 1B media containing advanced DMEM/F-12 (Thermo Fisher Scientific, cat. 12634028), 10 mM HEPES (Thermo Fisher Scientific, cat. 15630080), 1X GlutaMAX supplement (Thermo Fisher Scientific, cat. 35050061), 0.1 mg/mL primocin (InvivoGen, San Diego, CA, cat. ant-pm-2), 10% defined fetal bovine serum, heat inactivated (HyClone Laboratories Inc., Logan, UT, cat. SH30070.03HI), 50% L-WRN conditioned media (ATCC, cat. CRL-3276), 1.25 mM N-Acetyl-L-cysteine (Sigma-Aldrich, cat. A9165), 10 mM nicotinamide (Sigma-Aldrich, cat. N0636), 1X B-27 supplement (Thermo Fisher Scientific, cat. 17504044), 1X N-2 supplement (Thermo Fisher Scientific, cat. […]

[1] = second compound 0.0316 µM, first compound 0.0316 µM
[2] = second compound 0.0316 µM, first compound 0.1 µM
[3] = second compound 0.1 µM, first compound 0.0316 µM
[4] = second compound 0.1 µM, first compound 0.1 µM
[5] = second compound 0.316 µM, first compound 0.0316 µM
[6] = second compound 0.316 µM, first compound 0.1 µM
[7] = second compound 1 µM, first compound 0.0316 µM
[8] = second compound 1 µM, first compound 0.1 µM
[9] = second compound 3.16 µM, first compound 0.0316 µM
[10] = second compound 3.16 µM, first compound 0.1 µM
[11] = second compound 10 µM, first compound 0.0316 µM
[12] = second compound 10 µM, first compound 0.1 µM
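Note: spheroids exposed to compounds for one week.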
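Throughout, for viability, T/C: 100% = vehicle DMSO treated spheroids.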

In the case of `CCc1cc2c(N3CCc4c(cc(Cn5ccnc5)cc4-c4cn(C)nc4C(F)(F)F)C3=O)ccnc2c(OC)n1` + Nc1ccc(C#CCN(C(=O)Cc2ncc(C(F)(F)F)cc2C(F)(F)F)c2ccc(F)cc2)nn1, the IC50 (second compound 0.0316 µM) is reported as > 10 µM, the IC50 (second compound 0.1 µM) is reported as 4.78 µM and the IC50 (second compound 0.316 µM) is reported as 7.55 µM. The IC50 (second compound 1 µM) was 8.72 µM, the IC50 (second compound 3.16 µM) was > 10 µM and the IC50 (second compound 10 µM) was 5.44 µM. It also gave a viability, T/C [1] of 89.5%, a viability, T/C [2] of 124% and a viability, T/C (second compound 0.0316 µM, first compound 0.316 µM) of 110%. It also gave a viability, T/C (second compound 0.0316 µM, first compound 1 µM) of 70.7%, a viability, T/C (second compound 0.0316 µM, first compound 3.16 µM) of 63.5% and a viability, T/C (second compound 0.0316 µM, first compound 10 µM) of 38.4%. For the same compound, the viability, T/C [3] was 88.5%, the viability, T/C [4] was 111% and the viability, T/C (second compound 0.1 µM, first compound 0.316 µM) was 101%. It also gave a viability, T/C (second compound 0.1 µM, first compound 1 µM) of 87.6%, a viability, T/C (second compound 0.1 µM, first compound 3.16 µM) of 54.9% and a viability, T/C (second compound 0.1 µM, first compound 10 µM) of 41.8%. For the same compound, the viability, T/C [5] was 120%, the viability, T/C [6] was 103% and the viability, T/C (second compound 0.316 µM, first compound 0.316 µM) was 87.1%. The viability, T/C (second compound 0.316 µM, first compound 1 µM) was 88.9%, the viability, T/C (second compound 0.316 µM, first compound 3.16 µM) was 86.1% and the viability, T/C (second compound 0.316 µM, first compound 10 µM) was 38.1%. For the same compound, the viability, T/C [7] was 127%, the viability, T/C [8] was 109% and the viability, T/C (second compound 1 µM, first compound 0.316 µM) was 100%. For the same compound, the viability, T/C (second compound 1 µM, first compound 1 µM) was 79.1%, the viability, T/C (second compound 1 µM, first compound 3.16 µM) was 63.9% and the viability, T/C (second compound 1 µM, first compound 10 µM) was 48%. The viability, T/C [9] was 95.7%, the viability, T/C [10] was 108% and the viability, T/C (second compound 3.16 µM, first compound 0.316 µM) was 113%. It also gave a viability, T/C (second compound 3.16 µM, first compound 1 µM) of 79.8%, a viability, T/C (second compound 3.16 µM, first compound 3.16 µM) of 64.3% and a viability, T/C (second compound 3.16 µM, first compound 10 µM) of 50.9%. For the same compound, the viability, T/C [11] was 102%, the viability, T/C [12] was 83.9% and the viability, T/C (second compound 10 µM, first compound 0.316 µM) was 83.7%. The viability, T/C (second compound 10 µM, first compound 1 µM) was 90.5%, the viability, T/C (second compound 10 µM, first compound 3.16 µM) was 62.6% and the viability, T/C (second compound 10 µM, first compound 10 µM) was 35.9%.
`Cn1ncnc1[C@H]1c2n[nH]c(=O)c3cc(F)cc(c23)N[C@@H]1c1ccc(F)cc1` + Nc1ccc(C#CCN(C(=O)Cc2ncc(C(F)(F)F)cc2C(F)(F)F)c2ccc(F)cc2)nn1 was tested, and the IC50 (second compound 0.0316 µM) was > 0.1 µM, the IC50 (second compound 0.1 µM) was > 0.1 µM and the IC50 (second compound 0.316 µM) was > 0.1 µM. The IC50 (second compound 1 µM) was > 0.1 µM, the IC50 (second compound 3.16 µM) was > 0.1 µM and the IC50 (second compound 10 µM) was > 0.1 µM. For the same compound, the viability, T/C (second compound 0.0316 µM, first compound 0.000316 µM) was 79.4%, the viability, T/C (second compound 0.0316 µM, first compound 0.001 µM) was 105% and the viability, T/C (second compound 0.0316 µM, first compound 0.00316 µM) was 86.2%. It also gave a viability, T/C (second compound 0.0316 µM, first compound 0.01 µM) of 93.1%, a viability, T/C [1] of 99.6% and a viability, T/C [2] of 79.8%. For the same compound, the viability, T/C (second compound 0.1 µM, first compound 0.000316 µM) was 92.4%, the viability, T/C (second compound 0.1 µM, first compound 0.001 µM) was 89.2% and the viability, T/C (second compound 0.1 µM, first compound 0.00316 µM) was 97.3%. It also gave a viability, T/C (second compound 0.1 µM, first compound 0.01 µM) of 100%, a viability, T/C [3] of 95% and a viability, T/C [4] of 88.7%. For the same compound, the viability, T/C (second compound 0.316 µM, first compound 0.000316 µM) was 113%, the viability, T/C (second compound 0.316 µM, first compound 0.001 µM) was 111% and the viability, T/C (second compound 0.316 µM, first compound 0.00316 µM) was 109%. The viability, T/C (second compound 0.316 µM, first compound 0.01 µM) was 97.4%, the viability, T/C [5] was 75.2% and the viability, T/C [6] was 72.8%. It also gave a viability, T/C (second compound 1 µM, first compound 0.000316 µM) of 112%, a viability, T/C (second compound 1 µM, first compound 0.001 µM) of 97.8% and a viability, T/C (second compound 1 µM, first compound 0.00316 µM) of 93.3%. It also gave a viability, T/C (second compound 1 µM, first compound 0.01 µM) of 95.2%, a viability, T/C [7] of 85.8% and a viability, T/C [8] of 68.1%. For the same compound, the viability, T/C (second compound 3.16 µM, first compound 0.000316 µM) was 108%, the viability, T/C (second compound 3.16 µM, first compound 0.001 µM) was 95.2% and the viability, T/C (second compound 3.16 µM, first compound 0.00316 µM) was 100%. It also gave a viability, T/C (second compound 3.16 µM, first compound 0.01 µM) of 98%, a viability, T/C [9] of 99.7% and a viability, T/C [10] of 93.7%. It also gave a viability, T/C (second compound 10 µM, first compound 0.000316 µM) of 115%, a viability, T/C (second compound 10 µM, first compound 0.001 µM) of 95.9% and a viability, T/C (second compound 10 µM, first compound 0.00316 µM) of 101%. It also gave a viability, T/C (second compound 10 µM, first compound 0.01 µM) of 94.1%, a viability, T/C [11] of 97.9% and a viability, T/C [12] of 87.2%.

From PubChem BioAssay AID1963842 (Molecular Pharmacology Branch, DTP, NCI, 2024)
